# Molecular target: T1, Der p I (Dermatophagoides pteronyssinus, UniProt P08176)
# T1 construct: tissue SmithKline-Beecham (crude mite extract); host or cells: house dust mite extract, purified on immobilised anti-Der p I antibody 4C1
# T1 sequence (P08176 99-320): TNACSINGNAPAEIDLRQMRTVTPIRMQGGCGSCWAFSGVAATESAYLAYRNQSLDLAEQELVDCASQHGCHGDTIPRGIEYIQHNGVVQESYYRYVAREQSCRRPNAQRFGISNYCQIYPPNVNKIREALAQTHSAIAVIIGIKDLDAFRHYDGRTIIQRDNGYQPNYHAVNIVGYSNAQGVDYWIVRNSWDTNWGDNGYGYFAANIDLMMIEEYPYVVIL
# Experiment: Inhibition (inactivation) kinetics of Der p I, fluorogenic substrate assay
# Format: biochemical
# Settings: second order inactivation rate constant, 50 mM potassium phosphate pH 8.25, 1 mM EDTA, 1 mM DTT, 25° C., purified Der p I; for kinact/KI: read-out: kobs /[I]
# Procedure: All Der-p I enzyme assays were routinely carried out in 50 mM potassium phosphate; pH 8.25 containing 1 mM ethylenediaminetetraaceticacid (EDTA) and 1 mM dithiothreitol (DTT). Product formation was monitored with respect to time by measuring the increase in fluorescence emission at 420 nm and exciting at 320 nm. All assays were carried out at 25° C. Stock solutions of the various substrates and/or inhibitors were made up in 100% dimethylsulphoxide (DMSO).
# The reaction of enzyme and inhibitor is comprised of two steps. The first is binding of enzyme and inhibitor to produce the enzyme inhibitor complex (E.I). This step is assumed to be rapid and reversible, relative to the other steps, and no chemical reaction occurs. In this case k1 is the second order rate constant for the formation of the E.I complex and k-1 is the first order rate constant for the breakdown of the E.I. The second step in the process, occurring at a rate k2, is the formation of the enzyme-inhibitor covalent complex (EI) resulting in irreversible inactivation of the enzyme.
# The practice of inactivation kinetics of enzymes have been described by two standard accepted methods (Schemes 1 and 2). The first (Scheme 1) is the dilution method described by Kitz, C. G. and Wilson, I. B., (1962), J. Biol. Chem., 237, 3245-3249. In this case enzyme and inhibitor are pre-incubated for a set period of time prior to quenching of this reaction by the addition of an excess of substrate. The second method (Scheme 2), is monitoring enzyme inactivation in the presence of substrate and irreversible inhibitors. This method has been described previously (Tian, W. -X. & Tsou, C. -L, (1982), Biochemistry, 21, 1028-1032; Morrison, J. F. & Walsh, C. T., (1988), Adv. Enzymol. Relat. Areas Mol. Biol., 61, 201-301) and the equations describing the kinetics are shown below (Eq. 1, 2 and 3). In both cases the inhibitor concentration employed is at least 10 times greater than the enzyme concentration in order to maintain pseudo-first order conditions.
# kapp =k2 [I]/1+[S]/KM [I]+K1) Eq. 1
# [Product]=vs t+(v0 -v5)[1-exp(-kapp t)]/kapp +dEq.
# second order rate constant=(kapp /[I])(1+[S]/KM) Eq. 3
# The apparent inactivation rate constant (kapp) was calculated using Eq. 2; where vo is the initial velocity of the reaction, vs is asymptotic steady-state velocity of the reaction, d is the intercept at time zero. The second order rate was calculated using Eq. 3.
# Assays were routinely carried out in 50 mM potassium phosphate; pH 8.25 containing 1 mM ethylenediaminetetraaceticacid (EDTA) and 1 mM dithiothreitol (DTT). The fluorogenic substrate was 2-aminobenzoylvalylalanylnorleucylseryl-(3-nitro)tyrosinyl aspartylamide. Product formation was monitored with respect to time by measuring the increase in fluorescence emission at 420 nm and exciting at 320 nm. Assays were carried out at 25° C. Stock solutions of the various inhibitors were made up in 100% dimethylsulphoxide.
# Inactivation kinetics for various inhibitors were carried out using the techniques already described. In the dilution method, generally 100 nM Der p I was mixed and incubated with 0.5-10 uM of the inhibitor and aliquots were taken out at given time points (sampling time) and the residual enzyme activity determined by a ten-fold dilution into assay buffer containing saturating amounts of substrate. The residual activity was related to the sampling time and the curve fitted by computational non-linear least square regression analysis. In cases where the second order rate constants were greater than 10^5 M^-1 s^-1, second order conditions were employed (i.e. equimolar amounts of enzyme and inhibitor). Generally stoichiometric amounts of enzyme and inhibitor were incubated for given time intervals (sampling time) and the reaction stopped by a ten-fold dilution of this mixture by saturating amounts of substrate in assay buffer. […]
Compound,kobs /[I],kinact/KI [M⁻¹ s⁻¹]
"CCCC[C@H](NC(=O)[C@H](C)NC(=O)[C@@H](NC(=O)c1ccccc1)C(C)C)C(=O)COC(=O)c1c(C(F)(F)F)cccc1C(F)(F)F [Compound 3, N-Benzoyl-L-valyl-L-alanyl-L-norleucine 2,6-bis (trifluoromethyl)benzoyloxymethyl ketone]",> 10^7 M^- s^-1,–
"CCCC[C@H](NC(=O)[C@H](C)NC(=O)[C@@H](NC(=O)c1ccccc1)C(C)C)C(=O)COC(=O)c1c(C)cccc1C [Compound 4, N-Benzoyl-L-valyl-L-alanyl-L-norleucine 2,6-dimethyl benzoyloxy methyl ketone]",1.6 × 10^7 M^- s^-1,–
"CCCC[C@H](NC(=O)[C@H](C)NC(=O)[C@@H](NC(=O)c1ccccc1)C(C)C)C(=O)COC(=O)c1c(Cl)cccc1Cl [Compound 6, N-Benzoyl-L-valyl-L-alanyl-L-norleucine 2,6-dichlorobenzoyloxymethyl ketone]",6.8 × 10^7 M^- s^-1,–
"CCCC[C@H](NC(=O)[C@H](C)NC(=O)[C@@H](NC(=O)c1ccccc1)C(C)C)C(=O)COC(=O)c1ccccc1 [Compound 7, N-Benzoyl-L-valyl-L-alanyl-L-norleucine benzoyloxymethyl ketone]",3.7 × 10^5 M^- s^-1,–
"CCCC[C@H](NC(=O)[C@H](C)NC(=O)[C@@H](NC(=O)c1ccccc1)C(C)C)C(=O)COC(=O)c1c(F)c(F)c(F)c(F)c1F [Compound 8, N-Benzoyl-L-valyl-L-alanyl-L-norleucine 2,3,4,5,6-pentafluoro benzoyloxy methyl ketone]",> 10^7 M^- s^-1,–
"CCCC[C@H](NC(=O)[C@H](C)NC(=O)[C@@H](NC(=O)c1ccccc1)C(C)C)C(=O)COC(=O)[C@@H](COC(C)(C)C)NC(=O)OCc1ccccc1 [Compound 10, N-Benzoyl-L-valyl-L-alanyl-L-norleucine N-(-benzyloxycarbonyl)-D-serinyl-(O-tert-butyl)oxymethyl ketone]",1.9 × 10^5 M^- s^-1,–
"CCCC[C@H](NC(=O)[C@H](C)NC(=O)[C@@H](NC(=O)c1ccccc1)C(C)C)C(=O)COC(=O)[C@@H](CO)NC(=O)OCc1ccccc1 [Compound 11, N-Benzoyl-L-valyl-L-alanyl-L-norleucine N(-benzyloxycarbonyl)-D-serinyloxy methyl ketone]",1.2 × 10^6 M^- s^-1,–
"CCCC[C@H](NC(=O)[C@H](C)NC(=O)[C@@H](NC(=O)c1ccccc1)C(C)C)C(=O)COC(=O)c1c(Cl)cccc1Cl [Compound 13, N-Benzoyl-L-valyl-L-alanyl-L-norleucine 2,6-dichlorophenylacyloxy methyl ketone]",6.6 × 10^5 M^- s^-1,–
"CCCC[C@H](NC(=O)[C@H](C)NC(=O)[C@@H](NC(=O)c1ccccc1)C(C)C)C(=O)NOC(=O)c1ccccc1 [Compound 15, N-(Benzoyl amino-L-valyl-L-alanyl-L-norleucyl)-O-benzoyl hydroxamate]",1.5 × 10^5 M^- s^-1,–
"CCCC[C@H](NC(=O)[C@H](C)NC(=O)[C@@H](NC(=O)c1ccccc1)C(C)C)C(=O)NOC(=O)c1c(C)cccc1C [Compound 16, N-(N-benzoyl-L-valyl-L-alanyl-L-norleucyl)-O-2,6-dimethyl-benzoyl hydroxamate]",1.6 × 10^4 M^- s^-1,–
CCOC(=O)/C=C/[C@H](CC(C)C)NC(=O)[C@H](C)NC(=O)[C@@H](NC(=O)OC(C)(C)C)C(C)C [Compound 23],1.7 × 10^3 M^- s^-1,–
CC(C)C[C@@H](/C=C/C(=O)OCC(F)(F)F)NC(=O)[C@H](C)NC(=O)[C@@H](NC(=O)OC(C)(C)C)C(C)C [Compound 25],3.1 × 10^3 M^- s^-1,–
CCOC(=O)/C=C/[C@H](CC(C)C)NC(=O)[C@H](C)NC(=O)[C@@H](NC(=O)c1ccccc1)C(C)C [Compound 26],4.1 × 10^3 M^- s^-1,–
CCOC(=O)/C=C/[C@H](CC(C)C)NC(=O)[C@H](C)NC(=O)[C@@H](NC(=O)c1ccccc1C(F)(F)F)C(C)C [Compound 27],6.3 × 10^3 M^- s^-1,–
CCOC(=O)/C=C/[C@H](CC(C)C)NC(=O)[C@H](C)NC(=O)[C@@H](NC(=O)c1ccc2c(c1)OCO2)C(C)C [Compound 28],6.8 × 10^3 M^- s^-1,–
CCOC(=O)/C=C/[C@H](CC(C)C)NC(=O)[C@H](C)NC(=O)[C@@H](NC(=O)Nc1ccccc1)C(C)C [Compound 29],4.6 × 10^3 M^- s^-1,–
CCOC(=O)/C=C/[C@H](CC(C)C)NC(=O)[C@H](C)NC(=O)[C@@H](NC(=O)N(c1ccccc1)c1ccccc1)C(C)C [Compound 30],7.5 × 10^3 M^- s^-1,–
CCOC(=O)/C=C/[C@H](CC(C)C)NC(=O)[C@H](C)NC(=O)[C@@H](NC(=O)C1c2ccccc2Oc2ccccc21)C(C)C [Compound 34],1.1 × 10^4 M^- s^-1,–
"CC(C)C[C@@H](/C=C/S(=O)(=O)c1ccccc1)NC(=O)[C@H](C)NC(=O)[C@@H](NNC(=O)OC(C)(C)C)C(C)C [Compound 36, (S)-(E)-3-((tert-butoxycarbonylamino-L-valyl)-L-alanyl)amino-1-phenylsulfonyl-5-methyl-1-hexene]",–,6400
"CC(C)C[C@@H](/C=C/S(C)(=O)=O)NC(=O)[C@H](C)NC(=O)[C@@H](NNC(=O)OC(C)(C)C)C(C)C [Compound 38, (S)-(E)-3-((tert-butoxycarbonylamino-L-valyl)-L-alanyl)amino-1-methylsulfonyl-5-methyl-1-hexene]",–,1100
"CCOS(=O)(=O)/C=C/[C@H](CC(C)C)NC(=O)[C@H](C)NC(=O)[C@@H](NC(=O)OC(C)(C)C)C(C)C [Compound 40, Ethyl(S)-(E)-3-((tert-butoxycarbonylamino-L-valyl)-L-alanyl)amino-5-methylhexenylsulfonate]",6.9 × 10^4 M^- s^-1,–
"N-Benzoyl-L-valyl-L-alanyl-L-norleucine 1,1-dimethylpropyloxymethyl ketone [Compound 9]",2.3 × 10^4 M^- s^-1,–
N-Benzoyl-L-valyl-L-alanyl-L-norleucine 2-furanoxy methyl ketone [Compound 12],1.9 × 10^5 M^- s^-1,–
